Reference: ChEMBL document CHEMBL1158373, “GRIND-based 3D-QSAR and CoMFA to investigate topics dominated by hydrophobic interactions: the case of hERG K+ channel blockers” (Eur J Med Chem, 2009)

Target: Voltage-gated inwardly rectifying potassium channel KCNH2 (Homo sapiens, UniProt Q12809)
Assay: (§1) Inhibition of human ERG in MCF7 cells
Conditions: not given

Sequence of Voltage-gated inwardly rectifying potassium channel KCNH2 (Q12809 whole entry): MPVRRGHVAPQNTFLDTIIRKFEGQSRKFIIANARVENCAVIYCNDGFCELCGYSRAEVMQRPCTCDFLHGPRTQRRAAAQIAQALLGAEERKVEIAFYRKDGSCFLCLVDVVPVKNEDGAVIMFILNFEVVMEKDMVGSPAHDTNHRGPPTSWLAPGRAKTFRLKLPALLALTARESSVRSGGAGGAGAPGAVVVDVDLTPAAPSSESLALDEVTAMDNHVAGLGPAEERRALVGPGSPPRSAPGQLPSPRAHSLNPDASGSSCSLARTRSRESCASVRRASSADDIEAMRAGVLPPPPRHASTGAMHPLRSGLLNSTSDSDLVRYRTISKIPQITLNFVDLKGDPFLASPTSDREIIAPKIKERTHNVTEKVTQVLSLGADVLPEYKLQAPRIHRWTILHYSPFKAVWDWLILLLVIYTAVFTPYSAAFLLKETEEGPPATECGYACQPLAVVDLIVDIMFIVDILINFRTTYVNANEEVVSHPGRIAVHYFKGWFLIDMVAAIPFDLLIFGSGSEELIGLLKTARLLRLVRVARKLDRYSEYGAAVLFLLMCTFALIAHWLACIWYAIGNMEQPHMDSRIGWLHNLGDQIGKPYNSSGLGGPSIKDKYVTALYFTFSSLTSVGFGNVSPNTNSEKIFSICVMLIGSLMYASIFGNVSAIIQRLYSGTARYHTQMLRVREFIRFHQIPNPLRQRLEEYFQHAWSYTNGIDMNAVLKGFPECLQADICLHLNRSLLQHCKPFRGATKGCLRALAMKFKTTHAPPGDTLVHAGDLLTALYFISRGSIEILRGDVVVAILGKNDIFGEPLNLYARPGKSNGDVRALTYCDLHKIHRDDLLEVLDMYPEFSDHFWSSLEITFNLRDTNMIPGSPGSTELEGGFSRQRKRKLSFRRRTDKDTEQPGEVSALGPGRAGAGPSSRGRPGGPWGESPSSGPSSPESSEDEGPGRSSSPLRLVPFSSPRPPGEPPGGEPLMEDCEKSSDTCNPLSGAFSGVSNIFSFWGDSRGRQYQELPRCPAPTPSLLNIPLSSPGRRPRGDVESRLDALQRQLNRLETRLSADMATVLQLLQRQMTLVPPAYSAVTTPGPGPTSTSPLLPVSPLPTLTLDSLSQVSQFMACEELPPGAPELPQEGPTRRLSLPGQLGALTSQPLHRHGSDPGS

| SMILES | IC50 |
| --- | --- |
| COc1c(N2CCNC(C)C2)c(F)cc2c(=O)c(C(=O)O)cn(C3CC3)c12 (stereo not given) [GATIFLOXACIN] | 129 µM |

Same assay, conditions: human, MCF7 cells

| SMILES | pIC50 |
| --- | --- |
| C[C@@H]1CN(c2c(F)c(N)c3c(=O)c(C(=O)O)cn(C4CC4)c3c2F)C[C@H](C)N1 [SPARFLOXACIN] | 4.58 |

Same assay, conditions: human, mcf7

| SMILES | pIC50 |
| --- | --- |
| CN(c1nccc(=O)[nH]1)C1CCN(c2nc3ccccc3n2Cc2ccc(F)cc2)CC1 [MIZOLASTINE] | 6.45 |

Target: hERG (KCNH2) (Homo sapiens, UniProt Q12809)
Sequence (Q12809 whole entry): as above
Assay: as §1
Conditions: human, mcf7

| SMILES | IC50 |
| --- | --- |
| CN1CCN(CCCCN2C(=O)CN(/N=C/c3ccc(-c4ccc(Cl)cc4)o3)C2=O)CC1 [AZIMILIDE] | 0.562 µM |

System: not listed separately
Assay: Lipophilicity, log D at pH 7.0
Conditions: buffer

| SMILES | logD |
| --- | --- |
| CCCc1nn(C)c2c(=O)[nH]c(-c3cc(S(=O)(=O)N4CCN(C)CC4)ccc3OCC)nc12 | 2.29 |
| CN(C)CCC=C1c2ccccc2CCc2ccccc21 [AMITRIPTYLINE] | 3.33 |
| COc1ccc(CCN2CCC(Nc3nc4ccccc4n3Cc3ccc(F)cc3)CC2)cc1 [ASTEMIZOLE] | 4.14 |
| CN1CCN(CCCCN2C(=O)CN(/N=C/c3ccc(-c4ccc(Cl)cc4)o3)C2=O)CC1 [AZIMILIDE] | 2.05 |
| CC(C)COCC(CN(Cc1ccccc1)c1ccccc1)N1CCCC1 (stereo not given) [BEPRIDIL] | 4.49 |
| CN(C)CCCN1c2ccccc2Sc2ccc(Cl)cc21 [CHLORPROMAZINE] | 2.99 |
| COc1cc(N)c(Cl)cc1C(=O)NC1CCN(CCCOc2ccc(F)cc2)CC1OC (stereo not given) [CISAPRIDE] | 2.05 |
| CN1CCN(C2=Nc3cc(Cl)ccc3Nc3ccccc32)CC1 [CLOZAPINE] | 4.41 |
| COC(=O)[C@H]1[C@@H](OC(=O)c2ccccc2)C[C@@H]2CC[C@H]1N2C [COCAINE] | 0.41 |
| COc1ccc([C@@H]2Sc3ccccc3N(CCN(C)C)C(=O)[C@@H]2OC(C)=O)cc1 [DILTIAZEM] | 1.62 |
| CN(CCOc1ccc(NS(C)(=O)=O)cc1)CCc1ccc(NS(C)(=O)=O)cc1 [DOFETILIDE] | 0.68 |
| O=C(O[C@@H]1C[C@@H]2C[C@H]3C[C@H](C1)N2CC3=O)c1c[nH]c2ccccc12 [DOLASETRON] | 2.6 |
| O=c1[nH]c2ccccc2n1CCCN1CCC(n2c(=O)[nH]c3cc(Cl)ccc32)CC1 [DOMPERIDONE] | 3.15 |
| O=C(CCCN1CC=C(n2c(=O)[nH]c3ccccc32)CC1)c1ccc(F)cc1 [DROPERIDOL] | 2.25 |
| COc1c(N2CCNC(C)C2)c(F)cc2c(=O)c(C(=O)O)cn(C3CC3)c12 (stereo not given) [GATIFLOXACIN] | -2.96 |
| COc1ccc(Cl)cc1C(=O)NCCc1ccc(S(=O)(=O)NC(=O)NC2CCCCC2)cc1 [GLYBURIDE] | 2.23 |

| SMILES | logD |
| --- | --- |
| CN1C2CCCC1CC(NC(=O)c1nn(C)c3ccccc13)C2 (stereo not given) [GRANISETRON] | -1.72 |
| Cc1c(F)c(N2CCNC(C)C2)cc2c1c(=O)c(C(=O)O)cn2C1CC1 (stereo not given) [GREPAFLOXACIN] | -1.47 |
| CCCCN(CCCC)CCC(O)c1cc2c(Cl)cc(Cl)cc2c2cc(C(F)(F)F)ccc12 (stereo not given) [HALOFANTRINE] | 5.68 |
| O=C(CCCN1CCC(O)(c2ccc(Cl)cc2)CC1)c1ccc(F)cc1 [HALOPERIDOL] | 1.82 |
| COCC(=O)O[C@]1(CCN(C)CCCc2nc3ccccc3[nH]2)CCc2cc(F)ccc2[C@@H]1C(C)C [MIBEFRADIL] | 1.96 |
| CN(c1nccc(=O)[nH]1)C1CCN(c2nc3ccccc3n2Cc2ccc(F)cc2)CC1 [MIZOLASTINE] | 1.96 |
| C1CCC(C(CC2CCCCN2)C2CCCCC2)CC1 (stereo not given) [PERHEXILINE] | 2.81 |
| O=c1[nH]c2ccccc2n1C1CCN(CCCC(c2ccc(F)cc2)c2ccc(F)cc2)CC1 [PIMOZIDE] | 5.11 |
| Cc1nc2n(c(=O)c1CCN1CCC(c3noc4cc(F)ccc34)CC1)CCCC2 [RISPERIDONE] | 0.71 |
| O=C1NCCN1CCN1CCC(c2cn(-c3ccc(F)cc3)c3ccc(Cl)cc23)CC1 [SERTINDOLE] | 2.65 |
| C[C@@H]1CN(c2c(F)c(N)c3c(=O)c(C(=O)O)cn(C4CC4)c3c2F)C[C@H](C)N1 [SPARFLOXACIN] | -3.4 |
| Fc1ccc(Cn2c(NC3CCNCC3)nc3ccccc32)cc1 [TECASTEMIZOLE] | 0.16 |
| CC(C)(C)c1ccc(C(O)CCCN2CCC(C(O)(c3ccccc3)c3ccccc3)CC2)cc1 (stereo not given) [TERFENADINE] | 4.11 |
| CSc1ccc2c(c1)N(CCC1CCCCN1C)c1ccccc1S2 (stereo not given) [THIORIDAZINE] | 3.83 |
| O=C1Cc2cc(CCN3CCN(c4nsc5ccccc45)CC3)c(Cl)cc2N1 [ZIPRASIDONE] | 3.93 |
